# Source: ChEMBL document CHEMBL4673302, “Efficient synthesis and antitumor evaluation of 4-aminomethyl-N-arylpyrazoles: Discovery of potent and selective agents for ovarian cancer” (Bioorg Med Chem, 2021)
# Tested on: U-251
# Assay: Anticancer activity against human U-251 cells assessed as cell growth inhibition measured after 48 hrs by sulforhodamine B assay
# Format: functional
# Conditions: 48 h
row,Compound,GI50
1,CCOC(=O)c1nn(-c2ccccc2)c(-c2ccc([N+](=O)[O-])cc2)c1CNC(C)(C)C,220 µM

# Same assay, conditions: Homo sapiens, U-251, 48 h
row,Compound,GI50
1,CC(C)(C)NCc1c(C(=O)O)nn(-c2ccc(Cl)cc2)c1-c1ccccc1,> 652 µM
2,CC(C)(C)NCc1c(C(=O)O)nn(-c2ccc(Cl)cc2)c1-c1ccc(Br)cc1,> 542 µM
3,Cc1ccc(-c2c(CNC(C)(C)C)c(C(=O)O)nn2-c2ccc(Cl)cc2)cc1,> 630 µM
4,CCOC(=O)c1nn(-c2ccc(Cl)cc2)c(-c2ccc(Br)cc2)c1CNC(C)(C)C,> 511 µM
5,CC(C)(C)NCc1c(C(=O)O)nn(-c2ccccc2)c1-c1ccc([N+](=O)[O-])cc1,> 634 µM

# Tested on: MCF7
# Assay: Anticancer activity against human MCF7 cells assessed as cell growth inhibition measured after 48 hrs by sulforhodamine B assay
# Format: functional
# Conditions: Homo sapiens, MCF7, 48 h
row,Compound,GI50
1,CCOC(=O)c1nn(-c2ccccc2)c(-c2ccc([N+](=O)[O-])cc2)c1CNC(C)(C)C,206 µM
2,CC(C)(C)NCc1c(C(=O)O)nn(-c2ccc(Cl)cc2)c1-c1ccccc1,496 µM
3,CC(C)(C)NCc1c(C(=O)O)nn(-c2ccc(Cl)cc2)c1-c1ccc(Br)cc1,221 µM
4,Cc1ccc(-c2c(CNC(C)(C)C)c(C(=O)O)nn2-c2ccc(Cl)cc2)cc1,> 630 µM
5,CCOC(=O)c1nn(-c2ccc(Cl)cc2)c(-c2ccc(Br)cc2)c1CNC(C)(C)C,> 511 µM
6,CC(C)(C)NCc1c(C(=O)O)nn(-c2ccccc2)c1-c1ccc([N+](=O)[O-])cc1,> 634 µM

# Tested on: 786-0
# Assay: Anticancer activity against human 786-0 cells assessed as cell growth inhibition measured after 48 hrs by sulforhodamine B assay
# Format: functional
# Conditions: 48 h
row,Compound,GI50
1,CCOC(=O)c1nn(-c2ccccc2)c(-c2ccc([N+](=O)[O-])cc2)c1CNC(C)(C)C,200 µM

# Same assay, conditions: Homo sapiens, 786-0, 48 h
row,Compound,GI50
1,CC(C)(C)NCc1c(C(=O)O)nn(-c2ccc(Cl)cc2)c1-c1ccccc1,> 652 µM
2,CC(C)(C)NCc1c(C(=O)O)nn(-c2ccc(Cl)cc2)c1-c1ccc(Br)cc1,542 µM
3,Cc1ccc(-c2c(CNC(C)(C)C)c(C(=O)O)nn2-c2ccc(Cl)cc2)cc1,> 630 µM
4,CCOC(=O)c1nn(-c2ccc(Cl)cc2)c(-c2ccc(Br)cc2)c1CNC(C)(C)C,> 511 µM
5,CC(C)(C)NCc1c(C(=O)O)nn(-c2ccccc2)c1-c1ccc([N+](=O)[O-])cc1,> 634 µM

# Tested on: NCI-H460
# Assay: Anticancer activity against human NCI-H460 cells assessed as cell growth inhibition measured after 48 hrs by sulforhodamine B assay
# Format: functional
# Conditions: Homo sapiens, NCI-H460, 48 h
row,Compound,GI50
1,CCOC(=O)c1nn(-c2ccccc2)c(-c2ccc([N+](=O)[O-])cc2)c1CNC(C)(C)C,429 µM
2,CC(C)(C)NCc1c(C(=O)O)nn(-c2ccc(Cl)cc2)c1-c1ccccc1,> 652 µM
3,CC(C)(C)NCc1c(C(=O)O)nn(-c2ccc(Cl)cc2)c1-c1ccc(Br)cc1,> 542 µM
4,Cc1ccc(-c2c(CNC(C)(C)C)c(C(=O)O)nn2-c2ccc(Cl)cc2)cc1,> 630 µM
5,CCOC(=O)c1nn(-c2ccc(Cl)cc2)c(-c2ccc(Br)cc2)c1CNC(C)(C)C,> 511 µM
6,CC(C)(C)NCc1c(C(=O)O)nn(-c2ccccc2)c1-c1ccc([N+](=O)[O-])cc1,> 634 µM

# Tested on: PC-3
# Assay: Anticancer activity against human PC-3 cells assessed as cell growth inhibition measured after 48 hrs by sulforhodamine B assay
# Format: functional
# Conditions: 48 h
row,Compound,GI50
1,CCOC(=O)c1nn(-c2ccccc2)c(-c2ccc([N+](=O)[O-])cc2)c1CNC(C)(C)C,> 592 µM

# Same assay, conditions: Homo sapiens, PC-3, 48 h
row,Compound,GI50
1,CC(C)(C)NCc1c(C(=O)O)nn(-c2ccc(Cl)cc2)c1-c1ccccc1,> 652 µM
2,CC(C)(C)NCc1c(C(=O)O)nn(-c2ccc(Cl)cc2)c1-c1ccc(Br)cc1,> 542 µM
3,Cc1ccc(-c2c(CNC(C)(C)C)c(C(=O)O)nn2-c2ccc(Cl)cc2)cc1,> 630 µM
4,CCOC(=O)c1nn(-c2ccc(Cl)cc2)c(-c2ccc(Br)cc2)c1CNC(C)(C)C,> 511 µM
5,CC(C)(C)NCc1c(C(=O)O)nn(-c2ccccc2)c1-c1ccc([N+](=O)[O-])cc1,> 634 µM

# Tested on: OVCAR-3
# Assay: Anticancer activity against human OVCAR-3 cells assessed as cell growth inhibition measured after 48 hrs by sulforhodamine B assay
# Format: functional
# Conditions: 48 h
row,Compound,GI50
1,CCOC(=O)c1nn(-c2ccccc2)c(-c2ccc([N+](=O)[O-])cc2)c1CNC(C)(C)C,8.78 µM

# Same assay, conditions: Homo sapiens, OVCAR-3, 48 h
row,Compound,GI50
1,CC(C)(C)NCc1c(C(=O)O)nn(-c2ccc(Cl)cc2)c1-c1ccccc1,652 µM
2,CC(C)(C)NCc1c(C(=O)O)nn(-c2ccc(Cl)cc2)c1-c1ccc(Br)cc1,513 µM
3,Cc1ccc(-c2c(CNC(C)(C)C)c(C(=O)O)nn2-c2ccc(Cl)cc2)cc1,> 630 µM
4,CCOC(=O)c1nn(-c2ccc(Cl)cc2)c(-c2ccc(Br)cc2)c1CNC(C)(C)C,> 511 µM
5,CC(C)(C)NCc1c(C(=O)O)nn(-c2ccccc2)c1-c1ccc([N+](=O)[O-])cc1,> 634 µM

# Tested on: HT-29
# Assay: Anticancer activity against human HT-29 cells assessed as cell growth inhibition measured after 48 hrs by sulforhodamine B assay
# Format: functional
# Conditions: 48 h
row,Compound,GI50
1,CCOC(=O)c1nn(-c2ccccc2)c(-c2ccc([N+](=O)[O-])cc2)c1CNC(C)(C)C,71.3 µM

# Same assay, conditions: Homo sapiens, HT-29, 48 h
row,Compound,GI50
1,CC(C)(C)NCc1c(C(=O)O)nn(-c2ccc(Cl)cc2)c1-c1ccccc1,> 652 µM
2,CC(C)(C)NCc1c(C(=O)O)nn(-c2ccc(Cl)cc2)c1-c1ccc(Br)cc1,> 542 µM
3,Cc1ccc(-c2c(CNC(C)(C)C)c(C(=O)O)nn2-c2ccc(Cl)cc2)cc1,> 630 µM
4,CCOC(=O)c1nn(-c2ccc(Cl)cc2)c(-c2ccc(Br)cc2)c1CNC(C)(C)C,> 511 µM
5,CC(C)(C)NCc1c(C(=O)O)nn(-c2ccccc2)c1-c1ccc([N+](=O)[O-])cc1,> 634 µM

# Tested on: K562
# Assay: Anticancer activity against human K562 cells assessed as cell growth inhibition measured after 48 hrs by sulforhodamine B assay
# Format: functional
# Conditions: 48 h
row,Compound,GI50
1,CCOC(=O)c1nn(-c2ccccc2)c(-c2ccc([N+](=O)[O-])cc2)c1CNC(C)(C)C,12 µM

# Same assay, conditions: Homo sapiens, K562, 48 h
row,Compound,GI50
1,CC(C)(C)NCc1c(C(=O)O)nn(-c2ccc(Cl)cc2)c1-c1ccccc1,> 652 µM
2,CC(C)(C)NCc1c(C(=O)O)nn(-c2ccc(Cl)cc2)c1-c1ccc(Br)cc1,297 µM
3,Cc1ccc(-c2c(CNC(C)(C)C)c(C(=O)O)nn2-c2ccc(Cl)cc2)cc1,> 630 µM
4,CCOC(=O)c1nn(-c2ccc(Cl)cc2)c(-c2ccc(Br)cc2)c1CNC(C)(C)C,> 511 µM
5,CC(C)(C)NCc1c(C(=O)O)nn(-c2ccccc2)c1-c1ccc([N+](=O)[O-])cc1,> 634 µM

# Tested on: not listed separately
# Assay: Cytotoxicity against human HaCaT cells assessed as cell growth inhibition measured after 48 hrs by sulforhodamine B assay
# Format: cell-based
# Conditions: HaCaT cells
row,Compound,GI50 at 48 h
1,CCOC(=O)c1nn(-c2ccccc2)c(-c2ccc([N+](=O)[O-])cc2)c1CNC(C)(C)C,103 µM
2,CC(C)(C)NCc1c(C(=O)O)nn(-c2ccc(Cl)cc2)c1-c1ccccc1,175 µM
3,CC(C)(C)NCc1c(C(=O)O)nn(-c2ccc(Cl)cc2)c1-c1ccc(Br)cc1,> 542 µM
4,Cc1ccc(-c2c(CNC(C)(C)C)c(C(=O)O)nn2-c2ccc(Cl)cc2)cc1,> 630 µM
5,CCOC(=O)c1nn(-c2ccc(Cl)cc2)c(-c2ccc(Br)cc2)c1CNC(C)(C)C,> 511 µM
6,CC(C)(C)NCc1c(C(=O)O)nn(-c2ccccc2)c1-c1ccc([N+](=O)[O-])cc1,> 634 µM
